Tests used:
[1] = target: T1, Muscarinic acetylcholine receptor M4 (Homo sapiens) (UniProt P08173); assay: Positive allosteric modulation of human muscarinic M4 receptor expressed in CHO-K1 cells assessed as leftward shift in acetylcholine response at 10 uM treated for 144 secs prior to acetylcholine addition measured for 5 mins by Fluo-4-AM based calcium mobilization assay relative to acetylcholine; assay type: functional, cell-based
T1 sequence (whole entry): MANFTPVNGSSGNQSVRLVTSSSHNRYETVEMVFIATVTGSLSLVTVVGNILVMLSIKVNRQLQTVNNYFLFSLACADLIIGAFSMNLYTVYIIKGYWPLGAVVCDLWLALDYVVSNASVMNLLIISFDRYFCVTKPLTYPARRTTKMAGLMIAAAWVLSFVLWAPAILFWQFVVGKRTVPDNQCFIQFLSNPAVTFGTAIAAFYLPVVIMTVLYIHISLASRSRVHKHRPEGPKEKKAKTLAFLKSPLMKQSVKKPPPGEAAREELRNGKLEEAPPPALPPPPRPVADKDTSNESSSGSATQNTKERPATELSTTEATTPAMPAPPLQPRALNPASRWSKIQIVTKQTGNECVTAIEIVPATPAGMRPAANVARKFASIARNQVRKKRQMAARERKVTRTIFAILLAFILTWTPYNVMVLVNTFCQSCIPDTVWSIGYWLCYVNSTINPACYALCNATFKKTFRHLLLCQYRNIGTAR

Plasma [2] = assay: Fraction unbound in rat plasma; assay type: ADME, cell-free
[3] = target: Muscarinic acetylcholine receptor M2 (Rattus norvegicus, UniProt P10980); assay: Positive allosteric modulation of rat muscarinic M2 receptor assessed as acetylcholine response
Plasma [4] = assay: Fraction unbound in human plasma; assay type: ADME, cell-free
[5] = target: Muscarinic acetylcholine receptor M1 (Rattus norvegicus, UniProt P08482); assay: Positive allosteric modulation of rat muscarinic M1 receptor assessed as acetylcholine response
[6] = target: T2, Muscarinic acetylcholine receptor M4 (Homo sapiens, UniProt P08173); assay: Positive allosteric modulation of human muscarinic M4 receptor expressed in CHO-K1 cells assessed as leftward shift in acetylcholine response treated for 144 secs prior to acetylcholine addition measured for 5 mins by Fluo-4-AM based calcium mobilization assay; assay type: functional, cell-based; details: read-out: EC50
T2 sequence (P08173 whole entry): T1 sequence (whole entry)

[7] = target: Muscarinic acetylcholine receptor M2 (Homo sapiens) (UniProt P08172); assay: Positive allosteric modulation of human muscarinic M2 receptor expressed in CHO-K1 cells assessed as leftward shift in acetylcholine response treated for 144 secs prior to acetylcholine addition measured for 5 mins by Fluo-4-AM based calcium mobilization assay relative to control; assay type: functional, cell-based
[8] = target: T1, Muscarinic acetylcholine receptor M4 (Homo sapiens); assay: Positive allosteric modulation of human muscarinic M4 receptor expressed in CHO-K1 cells assessed as leftward shift in acetylcholine response treated for 144 secs prior to acetylcholine addition measured for 5 mins by Fluo-4-AM based calcium mobilization assay relative to control; assay type: functional, cell-based
[9] = target: T3, Muscarinic acetylcholine receptor M4 (Rattus norvegicus, UniProt P08485); assay: Positive allosteric modulation of rat muscarinic M4 receptor assessed as acetylcholine response
T3 sequence (P08485 whole entry): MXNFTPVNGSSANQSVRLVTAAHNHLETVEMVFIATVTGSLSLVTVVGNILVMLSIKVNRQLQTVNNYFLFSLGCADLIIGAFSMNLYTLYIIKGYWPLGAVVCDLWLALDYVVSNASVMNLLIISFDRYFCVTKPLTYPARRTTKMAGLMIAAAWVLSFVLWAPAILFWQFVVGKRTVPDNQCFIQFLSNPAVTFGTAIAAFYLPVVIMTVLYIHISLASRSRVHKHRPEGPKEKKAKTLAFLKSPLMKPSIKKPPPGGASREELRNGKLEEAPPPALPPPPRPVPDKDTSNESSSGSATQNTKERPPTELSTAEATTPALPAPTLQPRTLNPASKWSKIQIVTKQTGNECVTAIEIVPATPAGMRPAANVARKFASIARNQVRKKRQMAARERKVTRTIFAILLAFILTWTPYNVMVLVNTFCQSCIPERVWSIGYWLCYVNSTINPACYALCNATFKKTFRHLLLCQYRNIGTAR

[10] = target: Muscarinic acetylcholine receptor M5 (Homo sapiens, UniProt P08912); assay: Positive allosteric modulation of human muscarinic M5 receptor expressed in CHO-K1 cells assessed as leftward shift in acetylcholine response treated for 144 secs prior to acetylcholine addition measured for 5 mins by Fluo-4-AM based calcium mobilization assay; assay type: functional, cell-based
[11] = target: Muscarinic acetylcholine receptor M1 (Homo sapiens, UniProt P11229); assay: Positive allosteric modulation of human muscarinic M1 receptor expressed in CHO-K1 cells assessed as leftward shift in acetylcholine response treated for 144 secs prior to acetylcholine addition measured for 5 mins by Fluo-4-AM based calcium mobilization assay; assay type: functional, cell-based
[12] = target: Muscarinic acetylcholine receptor M1 (Homo sapiens) (UniProt P11229); assay: Positive allosteric modulation of human muscarinic M1 receptor expressed in CHO-K1 cells assessed as leftward shift in acetylcholine response treated for 144 secs prior to acetylcholine addition measured for 5 mins by Fluo-4-AM based calcium mobilization assay relative to control; assay type: functional, cell-based
[13] = target: Muscarinic acetylcholine receptor M3 (Homo sapiens, UniProt P20309); assay: Positive allosteric modulation of human muscarinic M3 receptor expressed in CHO-K1 cells assessed as leftward shift in acetylcholine response treated for 144 secs prior to acetylcholine addition measured for 5 mins by Fluo-4-AM based calcium mobilization assay; assay type: functional, cell-based
[14] = target: Muscarinic acetylcholine receptor M3 (Rattus norvegicus, UniProt P08483); assay: Positive allosteric modulation of rat muscarinic M3 receptor assessed as acetylcholine response
[15] = target: Muscarinic acetylcholine receptor M5 (Rattus norvegicus, UniProt P08911); assay: Positive allosteric modulation of rat muscarinic M5 receptor assessed as acetylcholine response
[16] = target: Muscarinic acetylcholine receptor M4 (Rattus norvegicus) (UniProt P08485); assay: Positive allosteric modulation of rat muscarinic M4 receptor assessed as acetylcholine response at 10 uM relative to acetylcholine
[17] = target: Muscarinic acetylcholine receptor M2 (Homo sapiens, UniProt P08172); assay: Positive allosteric modulation of human muscarinic M2 receptor expressed in CHO-K1 cells assessed as leftward shift in acetylcholine response treated for 144 secs prior to acetylcholine addition measured for 5 mins by Fluo-4-AM based calcium mobilization assay; assay type: functional, cell-based
[18] = target: Muscarinic acetylcholine receptor M2 (Rattus norvegicus) (UniProt P10980); assay: Positive allosteric modulation of rat muscarinic M2 receptor assessed as acetylcholine response relative to control
[19] = target: Muscarinic acetylcholine receptor M1 (Rattus norvegicus) (UniProt P08482); assay: Positive allosteric modulation of rat muscarinic M1 receptor assessed as acetylcholine response relative to control
Sequence of Muscarinic acetylcholine receptor M1 (Rattus norvegicus) (P08482 whole entry): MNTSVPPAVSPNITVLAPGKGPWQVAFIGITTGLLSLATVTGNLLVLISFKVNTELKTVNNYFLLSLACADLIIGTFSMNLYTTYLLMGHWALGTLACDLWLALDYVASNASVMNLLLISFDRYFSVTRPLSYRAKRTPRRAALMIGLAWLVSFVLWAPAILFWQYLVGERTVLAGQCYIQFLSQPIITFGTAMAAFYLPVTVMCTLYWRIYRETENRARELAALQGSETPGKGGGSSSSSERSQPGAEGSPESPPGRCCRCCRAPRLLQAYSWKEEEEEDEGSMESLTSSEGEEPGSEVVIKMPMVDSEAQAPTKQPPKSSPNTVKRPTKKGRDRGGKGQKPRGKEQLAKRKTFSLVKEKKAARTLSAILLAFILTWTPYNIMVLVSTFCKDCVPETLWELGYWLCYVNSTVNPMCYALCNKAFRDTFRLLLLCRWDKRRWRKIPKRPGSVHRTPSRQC

Sequence of Muscarinic acetylcholine receptor M3 (Homo sapiens, UniProt P20309) (P20309 whole entry): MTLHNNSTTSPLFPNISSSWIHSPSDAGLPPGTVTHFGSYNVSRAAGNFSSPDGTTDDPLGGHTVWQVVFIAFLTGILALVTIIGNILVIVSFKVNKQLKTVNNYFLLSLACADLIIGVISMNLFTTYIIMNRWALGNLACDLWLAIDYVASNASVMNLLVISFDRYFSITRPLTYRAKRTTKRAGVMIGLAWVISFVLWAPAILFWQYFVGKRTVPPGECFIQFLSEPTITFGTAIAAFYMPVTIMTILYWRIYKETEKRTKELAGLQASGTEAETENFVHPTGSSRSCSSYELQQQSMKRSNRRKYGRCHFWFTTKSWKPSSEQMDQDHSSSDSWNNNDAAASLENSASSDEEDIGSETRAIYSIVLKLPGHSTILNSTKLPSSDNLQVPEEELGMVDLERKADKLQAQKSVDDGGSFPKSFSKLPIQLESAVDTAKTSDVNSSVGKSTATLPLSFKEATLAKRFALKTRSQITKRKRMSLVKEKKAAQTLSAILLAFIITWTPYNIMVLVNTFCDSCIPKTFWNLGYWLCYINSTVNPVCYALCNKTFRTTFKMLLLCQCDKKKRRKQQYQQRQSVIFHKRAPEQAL
Sequence of Muscarinic acetylcholine receptor M5 (Homo sapiens, UniProt P08912) (P08912 whole entry): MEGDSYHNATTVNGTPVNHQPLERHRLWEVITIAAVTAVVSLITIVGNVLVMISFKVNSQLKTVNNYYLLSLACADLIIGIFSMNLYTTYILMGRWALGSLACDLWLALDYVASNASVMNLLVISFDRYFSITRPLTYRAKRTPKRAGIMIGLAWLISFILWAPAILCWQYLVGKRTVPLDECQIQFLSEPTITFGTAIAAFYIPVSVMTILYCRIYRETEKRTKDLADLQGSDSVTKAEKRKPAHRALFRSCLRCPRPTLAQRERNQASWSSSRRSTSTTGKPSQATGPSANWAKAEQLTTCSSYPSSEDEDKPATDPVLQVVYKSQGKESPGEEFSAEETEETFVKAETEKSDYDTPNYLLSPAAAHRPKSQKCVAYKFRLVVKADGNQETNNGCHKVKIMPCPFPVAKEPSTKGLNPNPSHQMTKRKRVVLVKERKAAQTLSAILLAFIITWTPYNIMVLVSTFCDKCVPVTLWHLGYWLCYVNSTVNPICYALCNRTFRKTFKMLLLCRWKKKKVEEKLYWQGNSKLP
Sequence of Muscarinic acetylcholine receptor M1 (Homo sapiens) (P11229 whole entry): as the sequence (P08482 whole entry) above, with V5A, S254T, S309P, K320R, G337A, V413I counted along it
Sequence of Muscarinic acetylcholine receptor M1 (Homo sapiens, UniProt P11229) (P11229 whole entry): as the sequence (P08482 whole entry) above, with V5A, S254T, S309P, K320R, G337A, V413I counted along it
Sequence of Muscarinic acetylcholine receptor M1 (Rattus norvegicus, UniProt P08482) (P08482 whole entry): as the sequence (P08482 whole entry) above
Sequence of Muscarinic acetylcholine receptor M2 (Homo sapiens) (P08172 whole entry): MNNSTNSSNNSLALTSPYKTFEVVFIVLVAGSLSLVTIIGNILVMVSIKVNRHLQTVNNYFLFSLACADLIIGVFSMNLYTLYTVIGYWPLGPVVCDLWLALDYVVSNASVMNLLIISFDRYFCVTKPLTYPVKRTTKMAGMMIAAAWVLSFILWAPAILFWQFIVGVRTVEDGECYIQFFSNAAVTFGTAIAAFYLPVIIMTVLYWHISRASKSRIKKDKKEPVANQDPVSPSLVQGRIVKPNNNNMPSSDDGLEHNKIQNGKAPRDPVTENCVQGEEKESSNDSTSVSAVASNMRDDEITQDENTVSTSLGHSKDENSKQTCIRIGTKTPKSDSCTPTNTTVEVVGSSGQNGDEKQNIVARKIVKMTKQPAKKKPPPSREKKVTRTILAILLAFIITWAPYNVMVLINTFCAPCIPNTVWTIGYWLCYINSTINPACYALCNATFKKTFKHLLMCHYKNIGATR
Sequence of Muscarinic acetylcholine receptor M2 (Homo sapiens, UniProt P08172) (P08172 whole entry): as above
Sequence of Muscarinic acetylcholine receptor M2 (Rattus norvegicus, UniProt P10980) (P10980 whole entry): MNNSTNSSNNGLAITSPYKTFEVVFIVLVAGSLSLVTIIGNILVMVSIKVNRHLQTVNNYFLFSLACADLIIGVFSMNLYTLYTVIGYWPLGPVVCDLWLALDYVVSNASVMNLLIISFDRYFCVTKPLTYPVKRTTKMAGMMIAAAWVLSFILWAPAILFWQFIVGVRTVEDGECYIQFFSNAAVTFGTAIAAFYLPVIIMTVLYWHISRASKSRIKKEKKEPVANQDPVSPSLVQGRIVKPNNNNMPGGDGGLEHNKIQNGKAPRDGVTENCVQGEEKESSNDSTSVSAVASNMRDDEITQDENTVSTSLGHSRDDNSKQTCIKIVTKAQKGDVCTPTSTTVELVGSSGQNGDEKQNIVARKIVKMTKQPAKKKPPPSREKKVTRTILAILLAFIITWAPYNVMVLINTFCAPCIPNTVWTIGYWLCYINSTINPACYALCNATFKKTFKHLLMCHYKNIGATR
Sequence of Muscarinic acetylcholine receptor M2 (Rattus norvegicus) (P10980 whole entry): as above
Sequence of Muscarinic acetylcholine receptor M3 (Rattus norvegicus, UniProt P08483) (P08483 whole entry): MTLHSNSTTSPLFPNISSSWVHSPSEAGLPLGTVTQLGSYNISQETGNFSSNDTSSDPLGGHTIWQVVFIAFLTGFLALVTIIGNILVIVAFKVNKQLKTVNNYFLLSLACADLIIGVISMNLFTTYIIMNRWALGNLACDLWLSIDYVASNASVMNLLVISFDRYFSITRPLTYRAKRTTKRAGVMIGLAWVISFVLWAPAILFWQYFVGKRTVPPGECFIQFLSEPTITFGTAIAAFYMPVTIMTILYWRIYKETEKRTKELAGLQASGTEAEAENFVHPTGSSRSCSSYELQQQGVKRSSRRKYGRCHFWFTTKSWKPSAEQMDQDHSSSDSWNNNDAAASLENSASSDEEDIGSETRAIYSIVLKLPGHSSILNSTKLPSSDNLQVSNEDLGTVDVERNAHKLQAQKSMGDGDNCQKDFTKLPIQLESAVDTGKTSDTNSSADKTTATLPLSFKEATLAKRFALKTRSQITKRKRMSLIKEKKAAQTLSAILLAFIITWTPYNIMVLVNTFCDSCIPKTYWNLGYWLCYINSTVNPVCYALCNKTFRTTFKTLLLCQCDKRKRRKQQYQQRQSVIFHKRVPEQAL
Sequence of Muscarinic acetylcholine receptor M5 (Rattus norvegicus, UniProt P08911) (P08911 whole entry): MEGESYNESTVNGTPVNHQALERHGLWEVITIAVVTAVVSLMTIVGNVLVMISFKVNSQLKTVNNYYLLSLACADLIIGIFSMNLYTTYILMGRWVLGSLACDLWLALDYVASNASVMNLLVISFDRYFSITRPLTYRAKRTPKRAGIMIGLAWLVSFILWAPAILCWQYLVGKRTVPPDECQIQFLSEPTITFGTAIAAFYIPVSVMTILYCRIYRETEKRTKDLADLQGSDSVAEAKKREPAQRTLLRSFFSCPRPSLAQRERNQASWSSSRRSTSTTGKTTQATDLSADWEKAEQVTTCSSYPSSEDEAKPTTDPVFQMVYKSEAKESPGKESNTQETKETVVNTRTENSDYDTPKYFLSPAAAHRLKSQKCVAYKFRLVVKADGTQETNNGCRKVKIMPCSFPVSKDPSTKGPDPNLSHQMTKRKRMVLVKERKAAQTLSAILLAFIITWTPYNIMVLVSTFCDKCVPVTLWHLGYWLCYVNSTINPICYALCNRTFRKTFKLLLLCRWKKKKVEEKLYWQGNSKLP

EC50 [6]	%max [8]	SMILES	also measured
147 nM	77.3%	Cc1nc2sc(C(=O)NC(C)C)c(N)c2c(C)c1Cl	
180 nM	33.2%	Cc1nc2sc(C(=O)NCc3ccc(Cl)cc3)c(N)c2c(C)c1Cl	
926 nM	38%	Cc1nc2sc(C(=O)NCCC3CCCN3C)c(N)c2c(C)c1Cl (centres undefined)	
128 nM	74.5%	Cc1nc2sc(C(=O)NCCc3ccncc3)c(N)c2c(C)c1Cl	
208 nM	84.9%	Cc1nc2sc(C(=O)NCc3cccnc3)c(N)c2c(C)c1Cl	
294 nM	83.1%	Cc1nc2sc(C(=O)NCc3cnccn3)c(N)c2c(C)c1Cl	
80 nM	71.7%	Cc1nc2sc(C(=O)NCc3ccc4c(c3)OCO4)c(N)c2c(C)c1Cl	
160 nM	32.4%	Cc1nc2sc(C(=O)NCc3ccccc3Cl)c(N)c2c(C)c1Cl	
107 nM	83.6%	COc1ccc(CNC(=O)c2sc3nc(C)c(Cl)c(C)c3c2N)cc1	
326 nM	74.5%	Cc1nc2sc(C(=O)NCc3ccnnc3)c(N)c2c(C)c1Cl	
1370 nM	51.1%	Cc1nc2sc(C(=O)NC(C)c3ccccn3)c(N)c2c(C)c1Cl (centres undefined)	
249 nM	65.1%	Cc1nc2sc(C(=O)NCc3nccs3)c(N)c2c(C)c1Cl	
844 nM	61.7%	Cc1nc2sc(C(=O)NCCc3ccccn3)c(N)c2c(C)c1Cl	
> 30000 nM		CCOc1ccc(NC(=O)c2sc3nc(C)c(Cl)c(C)c3c2N)cc1	
307 nM	68.3%	Cc1nc2sc(C(=O)NC(C)(C)C)c(N)c2c(C)c1Cl	
810 nM	51%	Cc1nc2sc(C(=O)NCc3ncccn3)c(N)c2c(C)c1Cl	
1410 nM	69.7%	Cc1nc2sc(C(=O)NCC3CCCCC3)c(N)c2c(C)c1Cl	
600 nM	64.1%	Cc1nc2sc(C(=O)NC(C)c3ccncc3)c(N)c2c(C)c1Cl (centres undefined)	

SMILES	EC50 [6]	%max [8]	also measured
Cc1nc2sc(C(=O)NC3CC3)c(N)c2c(C)c1Cl	77 nM	94%	fold change (FC) [1]: 224; Fu (Plasma [2]): 6.4%; EC50 [3]: 640 nM; Fu (Plasma [4]): 1.1%; EC50 [5]: 940 nM; %max [7]: 64%; EC50 [9]: 147 nM; EC50 [10]: > 30000 nM; EC50 [11]: 970 nM; %max [12]: 33%; EC50 [13]: > 30000 nM; EC50 [14]: > 30000 nM; EC50 [15]: > 30000 nM; fold change (FC) [16]: 54.1; EC50 [17]: 550 nM; %max [18]: 58%; %max [19]: 26%

Source: ChEMBL document CHEMBL2311451, “Discovery of a selective M₄ positive allosteric modulator based on the 3-amino-thieno[2,3-b]pyridine-2-carboxamide scaffold: development of ML253, a potent and brain penetrant compound that is active in a preclinical model of schizophrenia” (Bioorg Med Chem Lett, 2013)
